Laboratory results published in BindingDB's records for patent US20240018122 (Chiesi Farmaceutici, 2024).

These compounds were tested against T1, TGF-beta receptor type-1 (Homo sapiens, UniProt P36897) (assay: In vitro Assay).
T1 sequence (P36897 whole entry): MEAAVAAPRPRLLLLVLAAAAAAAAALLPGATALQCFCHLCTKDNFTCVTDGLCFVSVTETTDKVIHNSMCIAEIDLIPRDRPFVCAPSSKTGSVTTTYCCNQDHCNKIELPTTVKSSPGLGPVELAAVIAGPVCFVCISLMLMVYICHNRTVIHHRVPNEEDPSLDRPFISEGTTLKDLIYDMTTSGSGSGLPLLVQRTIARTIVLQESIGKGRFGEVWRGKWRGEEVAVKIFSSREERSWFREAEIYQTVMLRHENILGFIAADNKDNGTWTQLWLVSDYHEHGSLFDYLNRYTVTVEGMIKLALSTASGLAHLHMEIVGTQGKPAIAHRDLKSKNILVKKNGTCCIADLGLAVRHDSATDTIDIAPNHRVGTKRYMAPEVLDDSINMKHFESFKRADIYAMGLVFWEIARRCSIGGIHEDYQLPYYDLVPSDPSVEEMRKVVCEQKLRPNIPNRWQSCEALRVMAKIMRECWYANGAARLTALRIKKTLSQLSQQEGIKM
Method: The enzymatic activity of compounds of the present invention was monitored measuring the formation of ADP using the ADP-GLO Kinases assay. Following the incubation of the purified enzyme, a substrate and ATP, the produced ADP was converted into ATP, which in turn was converted into light by Ultra-Glo Luciferase. The luminescent signal positively correlated with ADP amount and kinase activity.

SMILES | IC50 [nM]
Cc1nnc(-c2cc(Cl)ccc2F)cc1Nc1ccnc(NC(=O)CCN2CCN(CCS(C)(=O)=O)CC2)c1 [US20240018122, Example 83] | < 1
Cc1nnc(-c2cc(Cl)ccc2F)cc1Nc1ccnc(NC(=O)NCC2CCN(C)CC2)c1 [US20240018122, Example 142] | < 1
Cc1nnc(-c2cc(Cl)ccc2F)cc1Nc1ccnc(NC(=O)CCN2CC[N+](C)(C)CC2)c1 [US20240018122, Example 110] | < 1
OCCC(CCO)N1CCN(CCOc2ccc3c(Nc4cnnc(-c5cc(Cl)ccc5F)c4)ccnc3c2)CC1 [US20240018122, Example 86] | < 1
CN1CCN(CCN(C)C(=O)c2cc3c(Nc4cnnc(-c5cc(Cl)ccc5F)c4)ccnc3[nH]2)CC1 [US20240018122, Example 40] | < 1
Cc1nnc(-c2cc(Cl)ccc2F)cc1Nc1ccnc(NC(=O)C2CC2)c1 [US20240018122, Example 15] | < 1
Cc1nnc(-c2cc(Cl)ccc2F)cc1Nc1ccnc(NC(=O)CCN2CCNC(C(=O)O)C2)c1 (configuration not stated) [US20240018122, Example 92] | < 1
